Like-named read-outs stand apart in the source and are kept apart here.
Columns and labels:
[1] = system: HepG2 cell; experiment: Cellular lipid-lowering level detection (oleic acid-induced cellular hyperlipidemia model, triglyceride content); type: cell-based, human; details: HepG2 cells, drug treatment 24 h
Experimental: The lipid-lowering ability at the cellular level was confirmed by detecting triglyceride levels of hyperlipidemia cells to determine whether the compounds have the ability to improve hyperlipidemia at the cellular level (J. Med. Chem. 2021, 64(5), 2815-2828). This experiment adopted a human liver cancer cell, HepG2 cell. After a cellular hyperlipidemia model was induced by oleic acid, the cells were incubated and treated with a drug for 24 h. Then, the cells were lysed by ultrasonication, and the content of triglyceride was detected according to the instructions of a triglyceride kit.

[2] = target: FIH (Homo sapiens (Human), UniProt Q9NWT6); experiment: Inhibitory activities of compounds on FIH, fluorescence polarization (FP assay); type: binding
Chain of FIH (Q9NWT6 whole entry): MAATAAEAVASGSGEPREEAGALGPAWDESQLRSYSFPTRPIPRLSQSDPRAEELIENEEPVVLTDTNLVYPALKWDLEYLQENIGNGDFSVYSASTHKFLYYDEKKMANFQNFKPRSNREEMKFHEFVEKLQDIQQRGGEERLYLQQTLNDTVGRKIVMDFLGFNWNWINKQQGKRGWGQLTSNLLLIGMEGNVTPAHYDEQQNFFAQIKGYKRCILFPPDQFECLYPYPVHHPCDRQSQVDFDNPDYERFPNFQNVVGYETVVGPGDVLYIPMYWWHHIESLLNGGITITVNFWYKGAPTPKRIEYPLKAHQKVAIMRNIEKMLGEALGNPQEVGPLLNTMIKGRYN
Experimental: The compounds were serially diluted in an assay buffer to 12 concentration gradients, and then 20 μL of diluted 300 nM FIH protein was added to each well. […] The plate was incubated at room temperature for 1 h and scanned with a Synergy plate reader. The excitation wavelength was set to 485 nm, and the emission wavelength was set to 535 nm. […] The obtained data were imported into Graphpad prism 8.0 for analysis and fit to obtain IC50 values.

[3] = FP competition with FITC-HIF-1α 788-822, Table 1, read-out: FIH IC50
[4] = Table 2, comparison compounds, read-out: FIH (IC50 nM), compound where position 5 of pyridine is linked to other structures

Structure (SMILES)	Whether or not it can improve cellular hyperlipidemia [1]	IC50 [2, 3]	IC50 [2, 4]
O=C(O)CNC(=O)c1ncc(-c2cccc(Cl)c2)cc1O [AKB-6548, reference compound]	No	–	–
O=C(O)CNC(=O)c1ncc(-c2cc(-c3ccccc3)no2)cc1O [Compound I-1, 3-Hydroxy-5-(3-phenylisoxazol-5-yl)picolinoyl glycine]	Yes	–	–
Cc1cccc(-c2cc(-c3cnc(C(=O)NCC(=O)O)c(O)c3)on2)c1 [Compound I-2, 3-Hydroxy-5-(3-m-tolylisoxazol-5-yl)picolinoyl glycine]	Yes	–	–
O=C(O)CNC(=O)c1ncc(-c2cc(-c3ccc(-c4ccccc4)cc3)no2)cc1O [Compound I-3, 3-Hydroxy-5-(3-biphenylisoxazol-5-yl)picolinoyl glycine]	Yes	–	–
COc1cccc(-c2cc(-c3cnc(C(=O)NCC(=O)O)c(O)c3)on2)c1 [Compound I-4, 3-Hydroxy-5-(3-m-methoxyphenylisoxazol-5-yl)picolinoyl glycine]	Yes	–	–
O=C(O)CNC(=O)c1ncc(-c2cc(-c3cccc(Cl)c3)no2)cc1O [Compound I-5, 3-Hydroxy-5-(3-m-chlorophenylisoxazol-5-yl)picolinoyl glycine]	Yes	–	–
O=C(O)CNC(=O)c1ncc(-c2cc(-c3cccc(Br)c3)no2)cc1O [Compound I-6, 3-Hydroxy-5-(3-m-bromophenylisoxazol-5-yl)picolinoyl glycine]	Yes	–	–
O=C(O)CNC(=O)c1ncc(-c2cc(C3CCCCC3)no2)cc1O [Compound I-7, 3-Hydroxy-5-(3-cyclohexylisoxazol-5-yl)picolinoyl glycine]	Yes	–	–
O=C(O)CNC(=O)c1ncc(-c2cc(C3CC3)no2)cc1O [Compound I-8, 3-Hydroxy-5-(3-cyclopropylisoxazol-5-yl)picolinoyl glycine]	Yes	–	–
N#Cc1cccc(-c2cc(-c3cnc(C(=O)NCC(=O)O)c(O)c3)on2)c1 [Compound I-9, 3-Hydroxy-5-(3-m-cyanophenylisoxazol-5-yl)picolinoyl glycine]	Yes	–	–
O=C(O)CNC(=O)c1ncc(-c2cc(-c3cccc(C(F)(F)F)c3)no2)cc1O [Compound I-10, 3-Hydroxy-5-(3-m-trifluoromethylphenylisoxazol-5-yl)picolinoyl glycine]	Yes	–	–
O=C(O)CNC(=O)c1ncc(-c2cc(-c3cccc4ccccc34)no2)cc1O [Compound I-11, 3-Hydroxy-5-(3-(naphthyl-1-yl)isoxazol-5-yl)picolinoyl glycine]	Yes	–	–
O=C(O)CNC(=O)c1ncc(-c2cc(-c3ccc4ccccc4c3)no2)cc1O [Compound I-12, 3-Hydroxy-5-(3-(naphthyl-2-yl)isoxazol-5-yl)picolinoyl glycine]	Yes	–	–
Cc1ccccc1-c1cc(-c2cnc(C(=O)NCC(=O)O)c(O)c2)on1 [Compound I-13, 3-Hydroxy-5-(3-o-tolylisoxazol-5-yl)picolinoyl glycine]	Yes	–	–
Cc1ccc(-c2cc(-c3cnc(C(=O)NCC(=O)O)c(O)c3)on2)cc1 [Compound I-14, 3-Hydroxy-5-(3-p-tolylisoxazol-5-yl)picolinoyl glycine]	Yes	–	–
Cc1cc(C)cc(-c2cc(-c3cnc(C(=O)NCC(=O)O)c(O)c3)on2)c1 [Compound I-15, 3-Hydroxy-5-(3-m-dimethylphenylisoxazol-5-yl)picolinoyl glycine]	Yes	–	–
O=C(O)CNC(=O)c1ncc(-c2cc(-c3cccc(F)c3)no2)cc1O [Compound I-16, 3-Hydroxy-5-(3-m-fluorophenylisoxazol-5-yl)picolinoyl glycine]	Yes	–	–
O=C(O)CNC(=O)c1ncc(-c2cc(-c3ccccc3Cl)no2)cc1O [Compound I-17, 3-Hydroxy-5-(3-o-chlorophenylisoxazol-5-yl)picolinoyl glycine]	Yes	–	–
O=C(O)CNC(=O)c1ncc(-c2cc(-c3ccc(Cl)cc3)no2)cc1O [Compound I-18, 3-Hydroxy-5-(3-p-chlorophenylisoxazol-5-yl)picolinoyl glycine]	Yes	–	–

Structure (SMILES)	Whether or not it can improve cellular hyperlipidemia [1]	IC50 [2, 3]	IC50 [2, 4]
O=C(O)CNC(=O)c1ncc(-c2cc(-c3cc(Cl)cc(Cl)c3)no2)cc1O [Compound I-19, 3-Hydroxy-5-(3-m-dichlorophenylisoxazol-5-yl)picolinoyl glycine]	Yes	–	–
O=C(O)CNC(=O)c1ncc(-c2cc(-c3ccccc3Br)no2)cc1O [Compound I-20, 3-Hydroxy-5-(3-o-bromophenylisoxazol-5-yl)picolinoyl glycine]	Yes	–	–
O=C(O)CNC(=O)c1ncc(-c2cc(-c3ccc(Br)cc3)no2)cc1O [Compound I-21, 3-Hydroxy-5-(3-p-bromophenylisoxazol-5-yl)picolinoyl glycine]	Yes	–	–
O=C(O)CNC(=O)c1ncc(-c2cc(-c3ccccc3C(F)(F)F)no2)cc1O [Compound I-22, 3-Hydroxy-5-(3-o-trifluoromethylphenylisoxazol-5-yl)picolinoyl glycine]	Yes	–	–
O=C(O)CNC(=O)c1ncc(-c2cc(-c3ccc(C(F)(F)F)cc3)no2)cc1O [Compound I-23, 3-Hydroxy-5-(3-p-trifluoromethylphenylisoxazol-5-yl)picolinoyl glycine]	Yes	–	–
O=C(O)CNC(=O)c1ncc(-c2cc(-c3ccccc3F)no2)cc1O [Compound I-24, 3-Hydroxy-5-(3-o-fluorophenylisoxazol-5-yl)picolinoyl glycine]	Yes	799 ± 8.6 nM	–
O=C(O)CNC(=O)c1ncc(-c2cc(-c3ccc(F)cc3)no2)cc1O [Compound I-25, 3-Hydroxy-5-(3-p-fluorophenylisoxazol-5-yl)picolinoyl glycine]	Yes	540 ± 1.8 nM	–
O=C(O)CNC(=O)c1ncc(-c2cc(-c3cc(F)cc(F)c3)no2)cc1O [Compound I-26, 3-Hydroxy-5-(3-m-difluorophenylisoxazol-5-yl)picolinoyl glycine]	Yes	–	–
CC(C)(C)c1cccc(-c2cc(-c3cnc(C(=O)NCC(=O)O)c(O)c3)on2)c1 [Compound I-27, 3-Hydroxy-5-(3-m-tert-butylphenylisoxazol 5-yl)picolinoyl glycine]	Yes	782 ± 9.6 nM	–
Cc1nc(C(=O)NCC(=O)O)c(O)cc1-c1cc(-c2ccccc2)no1 [Compound I-28, 3-Hydroxy-5-(3-phenylisoxazol-5-yl)-6-methylpicolinoyl glycine]	Yes	991 ± 12.3 nM	–
Cc1c(-c2ccccc2)noc1-c1cnc(C(=O)NCC(=O)O)c(O)c1 [Compound I-29, 3-Hydroxy-5-(4-methyl-3-phenylisoxazol-5-yl)picolinoyl glycine]	Yes	1010 ± 25.1 nM	–
CC(C)(C)c1c(-c2ccccc2)noc1-c1cnc(C(=O)NCC(=O)O)c(O)c1 [Compound I-30, 3-Hydroxy-5-(4-tert-butyl-3-phenylisoxazol-5-yl)picolinoyl glycine]	Yes	1210 ± 22.9 nM	–
O=C(O)CNC(=O)c1ncc(-c2onc(-c3ccccc3)c2C2CC2)cc1O [Compound I-31, 3-Hydroxy-5-(4-cyclopropyl-3-phenylisoxazol-5-yl)picolinoyl glycine]	Yes	1920 ± 14.5 nM	–
O=C(O)CNC(=O)c1ncc(-c2onc(-c3ccccc3)c2C2CCCCC2)cc1O [Compound I-32, 3-Hydroxy-5-(4-cyclohexyl-3-phenylisoxazol-5-yl) picolinoyl glycine]	Yes	998 ± 10.9 nM	–
O=C(O)CNC(=O)c1ncc(-c2onc(-c3ccccc3)c2-c2ccccc2)cc1O [Compound I-33, 3-Hydroxy-5-(3,4-diphenylisoxazol-5-yl)picolinoyl glycine]	Yes	787 ± 9.5 nM	–
O=C(O)CNC(=O)c1ncc(-c2cn(-c3ccccc3)nn2)cc1O [reference compound]	–	–	19590 ± 43.8 nM
O=C(O)CNC(=O)c1ncc(-c2cc(-c3ccccc3)co2)cc1O [reference compound]	–	–	9024 ± 36.1 nM
O=C(O)CNC(=O)c1ncc(-c2cc(-c3ccccc3)n[nH]2)cc1O [reference compound]	–	–	22250 ± 56.3 nM
